Data: patent US11572402B2, “Method for promoting diversification of antibody variable region” (Chiome Bioscience Inc., priority 2017, dated 2023)

Columns and labels:
BMAA4-2 cell line [1] = test: Sequence change analysis of antibody variable regions according to NGS (NUS, SBL); assay type: cell-based, chicken; settings: BMAA4-2 cells, versus negative control sample
Protocol: A frozen stock of the BMAA4-2 cell line (3.0×10^6 cells) was awaken with 10 mL of CS(−) medium, using a 25 cm^2 Flask, and the cells were then cultured in a CO2 incubator (39.5° C., 5% CO2). On the following day, 2 mL each of a CS(−) medium, to which each drug had been added, was added into each well of a 12-well dish (Nunc, 150628), and the cells were then seeded thereon to a cell density of 6.0×10^4 cells/mL (wherein the cell concentration and the survival rate were measured using CASY cell counter). After individual samples had been cultured for 2 days, the samples were subcultured under the same conditions to result in a cell density of 1.0×10^4 cells/mL. After completion of the culture for 3 days, individual samples were subcultured in a 25 cm^2 Flask to result in a cell density of 6.0×10^4 cells/mL with respect to 10 mL of the medium under the same conditions. After completion of the culture for 2 days (Day 7 of the culture), individual samples (in each amount of 2.0×10^6 cells) were recovered in a 1.5-mL tube, and thereafter, a supernatant was removed by centrifugation at 1,000×g for 5 min. The residue was re-suspended in 1 mL of D-PBS(−) (Nacalai Tesque, 14249-24), and a supernatant was then removed by centrifugation at 1,000×g for 5 min. The residue was preserved at −80° C. Moreover, individual samples from the remaining cells were subcultured in a 12-well dish to result in a cell density of 6.0×10^4 cells/mL with respect to 2 mL of the medium under the same conditions. After completion of the culture for 2 days, individual samples were subcultured under the same conditions to result in a cell density of 1.0×10^4 cells/mL. After completion of the culture for 3 days, individual samples were subcultured in a 25 cm^2 Flask to result in a cell density of 6.0×10^4 cells/mL with respect to 10 mL of the medium under the same conditions. After completion of the culture for 2 days (Day 14 of the culture), individual samples (in each amount of 2.0×10^6 cells) were recovered in a 1.5-mL tube, and thereafter, a supernatant was removed by centrifugation at 1,000×g for 5 min. The residue was re-suspended in 1 mL of D-PBS(−), and a supernatant was then removed by centrifugation at 1,000×g for 5 min. The residue was preserved at −80° C.
A frozen stock of the BMAA4-2 cell line (3.0×10^6 cells) was awaken with 10 mL of CS(−) medium, using a 25 cm^2 Flask, and the cells were then cultured in a CO2 incubator (39.5° C., 5% CO2). On the following day, 1 mL each of a CS(−) medium, to which each drug had been added, was added into each well of a 24-well dish, and the cells were then seeded thereon to a cell density of 3.0×10^5 cells/mL (wherein the cell concentration and the survival rate were measured using CASY cell counter). […]

BMAA4-2 cell line [2] = test: Sequence change analysis using BMAA4-2 cell line according to flow cytometry (cIgM+_Sema3A− population); assay type: cell-based, chicken; settings: BMAA4-2 cells, FCM at 1 week of culture, versus negative control CS(−)
Protocol: A frozen stock of the BMAA4-2 cell line (3.0×10^6 cells) was awaken with 10 mL of CS(−) medium, using a 25 cm^2 Flask (Corning, 430639), and the cells were then cultured in a CO2 incubator (SANYO CO2 Incubator MCO-20AIC, 39.5° C., 5% CO2). On the following day, 500 μL each of a CS(−) medium, to which each drug had been added, was added into each well of a 48-well dish (Nunc, 150687), and the cells were then seeded thereon to a cell density of 6.0×10^4 cells/mL (wherein the cell concentration and the survival rate were measured using CASY cell counter (Nepa Gene)). After individual samples had been cultured for 2 days, the samples were subcultured under the same conditions to result in a cell density of 1.0×10^4 cells/mL. […] Thereafter, a plot, in which the vertical axis indicated APC (AF647-labeled Sema3A) and the longitudinal axis indicated PE (Mouse Anti-Chicken IgM-PE), was developed, and the percentage of PE+ (cIgM+)_APC− (Sema3A−) cells was then calculated.
Using the BMAA4-2 cell line, a system for screening for a diversification-promoting compound was constructed (FIG. 1). […] Thus, the percentage of cIgM+_Sema3A− populations under individual culture conditions is measured and compared according to FCM, so that the effect of promoting changes in the amino acid sequences (i.e., the effect of promoting the diversification of the amino acid sequences) can be evaluated.

## Cc1nc(NC(=O)N2CCC[C@H]2C(N)=O)sc1-c1csc(C(C)(C)C)n1 [A66]
BMAA4-2 cell line [1]; heavy chain
  NUS (number of unique sequences), antibody heavy chain variable region amino acid sequences: higher values than the negative control sample
  SBL (sum of branch length), antibody heavy chain variable region amino acid sequences: higher values than the negative control sample
BMAA4-2 cell line [1]; light chain
  NUS (number of unique sequences), antibody light chain variable region amino acid sequences: higher values than the negative control sample
  SBL (sum of branch length), antibody light chain variable region amino acid sequences: higher values than the negative control sample
BMAA4-2 cell line [2]
  percentage of cIgM+_Sema3A− populations (sequence change-promoting action): highest sequence change-promoting action
